Source: ChEMBL document CHEMBL3616450, “Synthesis of oxygenated oleanolic and ursolic acid derivatives with anti-inflammatory properties” (Bioorg Med Chem Lett, 2015)
Active and inactive are the calls of the source. The rule behind the calls is not given here.

Assays:
Assay type in all cases: functional, organism-based
Mus musculus [1] = assay: Antiinflammatory activity in […] mouse assessed as inhibition of TPA-induced IL-1alpha mRNA expression in epidermis at 2 umol administered topically 30 mins prior to TPA challenge for twice weekly over 2 weeks measured 6 hrs post last TPA challenge by qRT-PCR analysis
Mus musculus [2] = assay: Antiinflammatory activity in […] mouse assessed as inhibition of TPA-induced IL-1beta mRNA expression in epidermis at 2 umol administered topically 30 mins prior to TPA challenge for twice weekly over 2 weeks measured 6 hrs post last TPA challenge by qRT-PCR analysis
Mus musculus [3] = assay: Antiinflammatory activity in […] mouse assessed as inhibition of TPA-induced IL-6 mRNA expression in epidermis at 2 umol administered topically 30 mins prior to TPA challenge for twice weekly over 2 weeks measured 6 hrs post last TPA challenge by qRT-PCR analysis
Mus musculus [4] = assay: Antiinflammatory activity in […] mouse assessed as inhibition of TPA-induced IL-23 mRNA expression in epidermis at 2 umol administered topically 30 mins prior to TPA challenge for twice weekly over 2 weeks measured 6 hrs post last TPA challenge by qRT-PCR analysis

C[C@H]1[C@H](C)CC[C@]2(C(=O)O)CC[C@]3(C)C(=CC[C@@H]4[C@@]5(C)CC[C@H](O)C(C)(C)[C@@H]5CC[C@]43C)[C@H]12
inhibition (Mus musculus [1]): inactive | inhibition (Mus musculus [2]): inactive | inhibition (Mus musculus [3]): inactive | inhibition (Mus musculus [4]): inactive

C[C@H]1[C@H](C)CC[C@]2(C(=O)O)CC[C@]3(C)C(=CC[C@@H]4[C@@]5(C)C[C@@H](O)[C@H](O)C(C)(C)[C@@H]5CC[C@]43C)[C@H]12
inhibition (Mus musculus [1]): Active | inhibition (Mus musculus [2]): Active | inhibition (Mus musculus [3]): Active | inhibition (Mus musculus [4]): Active

CC1(C)CC[C@]2(C(=O)O)CC[C@]3(C)C(=CC[C@@H]4[C@@]5(C)CC[C@H](O)C(C)(C)[C@@H]5CC[C@]43C)[C@@H]2C1
inhibition (Mus musculus [1]): inactive | inhibition (Mus musculus [2]): inactive | inhibition (Mus musculus [3]): inactive | inhibition (Mus musculus [4]): inactive

CC1(C)CC[C@]2(C(=O)O)CC[C@]3(C)C(=CC[C@@H]4[C@@]5(C)C[C@@H](O)[C@@H](O)C(C)(C)[C@@H]5CC[C@]43C)[C@@H]2C1
inhibition (Mus musculus [1]): inactive | inhibition (Mus musculus [2]): inactive | inhibition (Mus musculus [3]): inactive | inhibition (Mus musculus [4]): inactive

CC1(C)CC[C@]2(C(=O)O)CC[C@]3(C)C(=CC[C@@H]4[C@@]5(C)C[C@@H](O)[C@H](O)C(C)(C)[C@@H]5CC[C@]43C)[C@@H]2C1
inhibition (Mus musculus [1]): Active | inhibition (Mus musculus [2]): Active | inhibition (Mus musculus [3]): Active | inhibition (Mus musculus [4]): Active

C[C@H]1[C@H](C)CC[C@]2(C(=O)O)CC[C@]3(C)C(=CC[C@@H]4[C@@]5(C)C[C@@H](O)[C@@H](O)C(C)(C)[C@@H]5CC[C@]43C)[C@H]12
inhibition (Mus musculus [1]): Active | inhibition (Mus musculus [2]): Active | inhibition (Mus musculus [3]): Active | inhibition (Mus musculus [4]): Active
